# Results from the NIST ThermoML archive (doi:10.1016/j.jct.2008.06.003).
# Numbers after ± are expanded uncertainties.
# Experiments:
# [1] = Crystal; for molar enthalpy of sublimation: 298.15 K, Static calorimetry
# [2] = Molar enthalpy of transition or fusion; conditions: Crystal; DSC
SMILES,molar enthalpy of sublimation [1] [kcal/mol],Normal melting temperature ([1]; DTA) [°C],Molar enthalpy of transition or fusion [2] [kcal/mol]
"OCC1COc2ccccc2O1 (centres undefined) [1,4-benzodioxane-2-methanol]",25.5 ± 0.406,89.2 ± 0.53,6.88 ± 0.151
"O=C(O)C1COc2ccccc2O1 (centres undefined) [1,4-benzodioxan-2-carboxylic acid]",28.2 ± 1,–,–
